Measured values published in PubChem BioAssay (NCI).
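At the GI50, growth is halved. TGI: total growth inhibition.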

Assays:
Assay in all cases: growth of human tumour cells (NCI), 384-well format
[1] = test system: 786-0 renal
[2] = test system: A498 renal
[3] = test system: A549 NSCLC
[4] = test system: ACHN renal
[5] = test system: BT-549 breast
[6] = test system: CAKI-1 renal
[7] = test system: CCRF-CEM leukemia
[8] = test system: COLO 205 colon
[9] = test system: DU-145 prostate
[10] = test system: EKVX NSCLC
[11] = test system: HCC-2998 colon
[12] = test system: HCT-15 colon
[13] = test system: HL-60(TB) leukemia
[14] = test system: HOP-62 NSCLC
[15] = test system: HOP-92 NSCLC
[16] = test system: HS 578T breast
[17] = test system: HT29 colon
[18] = test system: IGROV1 ovarian
[19] = test system: K-562 leukemia
[20] = test system: KM12 colon
[21] = test system: LOX IMVI melanoma
[22] = test system: M14 melanoma
[23] = test system: MALME-3M melanoma
[24] = test system: MCF7 breast
[25] = test system: MDA-MB-231 breast
[26] = test system: MDA-MB-435 melanoma
[27] = test system: MDA-MB-468 breast
[28] = test system: MOLT-4 leukemia
[29] = test system: NCI-H226 lung
[30] = test system: NCI-H23 lung
[31] = test system: NCI-H322M lung
[32] = test system: NCI-H460 NSCLC
[33] = test system: NCI-H522 lung
[34] = test system: NCI/ADR-RES ovarian
[35] = test system: OVCAR-3 ovarian
[36] = test system: OVCAR-4 ovarian
[37] = test system: OVCAR-5 ovarian
[38] = test system: OVCAR-8 ovarian
[39] = test system: PC-3 prostate
[40] = test system: RPMI-8226 leukemia
[41] = test system: RXF 393 renal
[42] = test system: SF-268 CNS
[43] = test system: SF-295 CNS
[44] = test system: SF-539 CNS
[45] = test system: SK-MEL-28 melanoma
[46] = test system: SK-MEL-5 melanoma
[47] = test system: SK-OV-3 ovarian
[48] = test system: SN12C renal
[49] = test system: SNB-19 CNS
[50] = test system: SNB-75 CNS
[51] = test system: SR leukemia
[52] = test system: SW-620 colon
[53] = test system: T-47D breast
[54] = test system: TK-10 renal
[55] = test system: UACC-257 melanoma
[56] = test system: UACC-62 melanoma
[57] = test system: UO-31 renal

## CN1CCN(c2cc(C(=O)Nc3cc4cc(-c5cnn(C)c5)ccc4cn3)ccn2)CC1
[1]
  GI50: 154 nM
  TGI: 316 nM
[2]
  GI50: 32.8 nM
  TGI: 158 nM
[3]
  GI50: 30.7 nM
  TGI: 129 nM
[4]
  GI50: 47.5 nM
  TGI: 219 nM
[5]
  GI50: 28.3 nM
  TGI: 71.4 nM
[6]
  GI50: 35.3 nM
  TGI: 210 nM
[7]
  GI50: 25.6 nM
  TGI: 53.5 nM
[8]
  GI50: 26 nM
  TGI: 64.1 nM
[9]
  GI50: 50.2 nM
  TGI: 282 nM
[10]
  GI50: 62.5 nM
  TGI: 1600 nM
[11]
  GI50: 105 nM
  TGI: 287 nM
[12]
  GI50: 39.1 nM
  TGI: 157 nM
[13]
  GI50: 99.4 nM
  TGI: 219 nM
[14]
  GI50: 31.8 nM
  TGI: 145 nM
[15]
  GI50: 39.6 nM
  TGI: 398 nM
[16]
  GI50: 38.9 nM
  TGI: 152 nM
[17]
  GI50: 138 nM
  TGI: 286 nM
[18]
  GI50: 52.1 nM
  TGI: 255 nM
[19]
  GI50: 52.8 nM
  TGI: 345 nM
[20]
  GI50: 32.9 nM
  TGI: 209 nM
[21]
  GI50: 51.7 nM
  TGI: 172 nM
[22]
  GI50: 75.9 nM
  TGI: 221 nM
[23]
  GI50: 84.6 nM
  TGI: 213 nM
[24]
  GI50: 55.9 nM
  TGI: 221 nM
[25]
  GI50: 87 nM
  TGI: 654 nM
[26]
  GI50: 86.9 nM
  TGI: 283 nM
[27]
  GI50: 26.8 nM
  TGI: 53.9 nM
[28]
  GI50: 18 nM
  TGI: 33 nM
[29]
  GI50: 131 nM
  TGI: 370 nM
[30]
  GI50: 18.9 nM
  TGI: 47.5 nM
[31]
  GI50: 68.2 nM
  TGI: 858 nM
[32]
  GI50: 51 nM
  TGI: 190 nM
[33]
  GI50: 26.6 nM
  TGI: 65.5 nM
[34]
  GI50: 71.4 nM
  TGI: 244 nM
[35]
  GI50: 30.2 nM
  TGI: 82.5 nM
[36]
  GI50: 58.9 nM
  TGI: 187 nM
[37]
  GI50: 167 nM
  TGI: 640 nM
[38]
  GI50: 72.4 nM
  TGI: 302 nM
[39]
  GI50: 76.7 nM
  TGI: 514 nM
[40]
  GI50: 24.5 nM
  TGI: 49.1 nM
[41]
  GI50: 118 nM
  TGI: 245 nM
[42]
  GI50: 142 nM
  TGI: 438 nM
[43]
  GI50: 99.8 nM
  TGI: 314 nM
[44]
  GI50: 121 nM
  TGI: 322 nM
[45]
  GI50: 125 nM
  TGI: 259 nM
[46]
  GI50: 22.9 nM
  TGI: 92.2 nM
[47]
  GI50: 28.1 nM
  TGI: 112 nM
[48]
  GI50: 55.3 nM
  TGI: 228 nM
[49]
  GI50: 41.6 nM
  TGI: 10200 nM
[50]
  GI50: 105 nM
  TGI: 261 nM
[51]
  GI50: 19.5 nM
  TGI: 40.8 nM
[52]
  GI50: 33.6 nM
  TGI: 1580 nM
[53]
  GI50: 67 nM
  TGI: 340 nM
[54]
  GI50: 116 nM
  TGI: 442 nM
[55]
  GI50: 36.3 nM
  TGI: 107 nM
[56]
  GI50: 27.8 nM
  TGI: 88.7 nM
[57]
  GI50: 158 nM
  TGI: 3160 nM
